Results on nine compounds are retold here after PMC10916400, “Effect of the aggregated protein dye YAT2150 on Leishmania parasite viability” (Antimicrobial Agents and Chemotherapy, 2024).

The test system of data set [1] is L. infantum promastigotes. Description: microbe, parasite or virus in culture. The class given is cell-based, Leishmania infantum. The settings on record: for growth inhibition: promastigotes, 72 h, 100 µM; for Selectivity index (CC50/IC50): CC50 in human umbilical vein endothelial cells / IC50 for promastigotes; for IC50: L. infantum promastigotes, in vitro. As for the experimental part:
L. infantum (MHOM/ES/2016/CATB101) promastigotes were maintained at 26°C in complete Schneider’s medium (Schneider’s insect medium supplemented with 10% FBS, 25 µg/mL gentamycin, 1% penicillin-streptomycin, and 1% sterile human urine, pH 6.7). For growth inhibition assays, promastigotes were used in the logarithmic growth phase, whereas for the infection of macrophages and generation of amastigotes they were used in the stationary phase. Axenic amastigotes were obtained following established protocols ([40], [57][–][59]); briefly, 1 × 10^7 promastigotes/mL in stationary phase were cultured in Schneider’s insect medium supplemented with 20% FBS, 25 µg/mL gentamycin, and 3.9 g/L of 2-(N-morpholino)ethanesulfonic acid, at pH 5.4 and 37°C. After 48 h, the typical rounded morphology of axenic amastigotes and their flagellum shortening could be observed. This culture was used within a week after its preparation.
In 96-well microtiter plates (Nunclon Delta surface; Thermo Fisher Scientific Inc.), serial dilutions (1:2) of the drugs or peptides were performed, either free or loaded in nanoformulations, in 100 µL of complete Schneider’s medium, to which one volume of 2 × 10^6 logarithmic growth-phase L. infantum promastigotes/mL in the same buffer was added. After 48 h, resazurin sodium salt was incorporated at a final concentration of 0.00125% and the plates were incubated at 26°C for another 24 h, when fluorescence from resorufin was measured as described above.

In the next data set the test system is promastigotes. The arrangement: method as in PMID 16316700. The settings on record: cited from earlier work.
The next data set deals with L. infantum amastigotes. Description: Amastigote growth inhibition assay (parasite rescue and transformation, RAW 264.7 macrophages). The class given is cell-based, Leishmania infantum. The settings on record: in vitro. As for the experimental part: Compound activity on amastigotes was determined following the parasite rescue and transformation assay ([61]). RAW 264.7 macrophages were seeded in 96-well microtiter plates at 10^5 cells/mL of DMEM supplemented with 10% FBS and 1% penicillin-streptomycin (complete DMEM, DMEMc) in a final volume of 200 µL per well. After an overnight incubation (37°C, 5% CO2) to allow cell adherence, the medium was removed and 10^6 L. infantum promastigotes/mL were added (1:10 macrophage:promastigote ratio) in DMEM supplemented with 2% FBS and 1% penicillin-streptomycin (DMEM 2% FBS). After 24 h, parasites not internalized by macrophages were removed by washing (3×, PBS) and dilutions in DMEM 2% FBS of free or liposome-encapsulated compounds were added. After 48 h, the medium was removed, cells were washed three times with PBS, and 40 µL of 0.05% SDS in complete Schneider’s medium was added; after 40 s, 160 additional µL/well of complete Schneider’s medium was added and plates were incubated at 26°C for another 48 h. Then, resazurin sodium salt was incorporated at a final concentration of 0.00125% and plates were incubated for 24 h more in the same conditions. Afterwards, resorufin fluorescence was measured as above.

The next data set can be described thus: in vitro. The class given is cell-based. The settings on record: human umbilical vein endothelial cells; for CC50: 48 h. The procedure:
Human umbilical vein endothelial cells were maintained in M-199 supplemented with 10% fetal bovine serum (FBS) and 1% penicillin-streptomycin at 37°C, 5% CO2, and seeded in 96-well plates at a density of 50,000 cells/mL. After allowing cell adherence for 24 h, the medium was removed, and drugs or nanoformulations were added in M-199 supplemented with 1% penicillin-streptomycin. Plates were incubated for 48 h, and then, the medium in each well was replaced by 100 µL of M-199 containing penicillin-streptomycin and 0.00125% resazurin sodium salt (Sigma-Aldrich Corporation). Plates were incubated for 4 h, and resorufin fluorescence emission was measured (λex/em: 535/590 nm) in a Tecan Infinite 200 PRO equipment (Tecan Trading AG).

Setting [2] is: Leishmania infantum, RAW264.7, L. infantum amastigotes in RAW 264.7 macrophages.
The mark [3] stands for this setting: L. infantum amastigotes in RAW 264.7 macrophages.

Residues, ends and D or L forms follow the SMILES beside them.

In data set [1], `CC[C@H](C)[C@H](NC(=O)[C@H](C)NC(C)=O)C(=O)N[C@@H](CO)C(=O)N[C@H](C(=O)N[C@@H](Cc1ccccc1)C(=O)N[C@@H](Cc1ccccc1)C(=O)N[C@@H](CC(C)C)C(=O)N[C@@H](CCC(=O)O)C(=O)N1CCC[C@H]1C(N)=O)C(C)C` (Ac-AISVFFLEP-NH2) came in with a growth inhibition of 0%.
One may read the IC50 as the concentration at which inhibition is half-maximal. In the case of `C[C@@H]1[C@H](O)[C@@H](C)/C=C/C=C/C=C/C=C/C=C/C=C/C=C/[C@H](O[C@@H]2O[C@H](C)[C@@H](O)[C@H](N)[C@@H]2O)C[C@@H]2O[C@](O)(C[C@@H](O)C[C@@H](O)[C@H](O)CC[C@@H](O)C[C@@H](O)CC(=O)O[C@H]1C)C[C@H](O)[C@H]2C(=O)O` [Amphotericin B], in the data set with promastigotes, the IC50 is 40 nM.
In data set [1], `CC[C@H](C)[C@H](NC(=O)[C@H](Cc1ccccc1)NC(=O)[C@H](CC(N)=O)NC(=O)[C@H](CC(=O)O)NC(C)=O)C(=O)N[C@@H](Cc1ccccc1)C(=O)NCC(=O)N[C@@H](CCC(N)=O)C(N)=O` [DNFIFGQ, Acetyl-DNFIFGQ-amide] (Ac-DNFIFGQ-NH2) gave a growth inhibition of 2%.
Broadly, the CC50 is the concentration that lowers cell viability or growth by half. A high value points to better tolerance by the cells. `COc1cc2c(cc1OC)C(=O)C(CC1CCN(CCCNc3c4c(nc5cc(Cl)ccc35)CCCC4)CC1)C2` (stereo not drawn) [DONE3TCl]: the “Selectivity index (CC50/IC50)” value in data set [1] is 6.0. The figures for the IC50 (in data set [1] (Leishmania infantum); in the data set on L. infantum amastigotes (setting [2])) were 2090 ± 400 nM and 620 ± 80 nM, respectively. In addition, half-maximal cytotoxicity in “in vitro” (CC50) was put at 12600 ± 2200 nM.
`CC1=CC2Cc3nc4cc(Cl)ccc4c(NCCCCCCCNc4c5c(nc6ccccc46)CCCC5)c3C(C1)C2` (stereo not drawn) [HUP7TH]: the IC50 in data set [1] came to 1230 ± 420 nM; in the data set with L. infantum amastigotes (setting [3]), 920 ± 380 nM. In “in vitro”, it took 7800 ± 3400 nM to reach half-maximal cytotoxicity (CC50 at 48 h).
Consider `CC1=CC2Cc3nc4cc(Cl)ccc4c(NCCCCCCCCNc4c5c(nc6ccccc46)CCCC5)c3C(C1)C2` (stereo not drawn) [HUP8TH], for which the “Selectivity index (CC50/IC50)” value in data set [1] is given as 4.9. Moreover, the IC50 in data set [1] (Leishmania infantum) turned out to be 990 ± 470 nM; in the data set with L. infantum amastigotes (setting [2]), 1630 ± 340 nM. The half-maximal cytotoxic concentration (CC50) in the data set “in vitro” was determined as 4900 ± 1300 nM.
As for `CC1=CC2Cc3nc4ccccc4c(NCCCCCCCCCCNc4c5c(nc6ccccc46)CCCC5)c3C(C1)C2` (stereo not drawn) [HUPH10TH], the IC50 amounted to 720 ± 110 nM in data set [1] and 970 ± 210 nM in the data set with L. infantum amastigotes (setting [3]). The CC50 at 48 h in the data set “in vitro” was found to be 3400 ± 100 nM.
Turning to `CC1=CC2Cc3nc4cc(Cl)ccc4c(NCCCN(C)CCCNc4c5c(nc6cc(Cl)ccc46)CCCC5)c3C(C1)C2` (stereo not drawn) [HUPNTCl], the “Selectivity index (CC50/IC50)” value in data set [1] is 3.1. For the same compound, the IC50 worked out at 2030 ± 190 nM in data set [1] (Leishmania infantum) and 1040 ± 210 nM in the data set on L. infantum amastigotes (setting [2]). The same compound had a half-maximal cytotoxic concentration (CC50) in “in vitro” of 6300 ± 500 nM.
As for `CC1=CC2Cc3nc4cc(Cl)ccc4c(NCCCN(C)CCCNc4c5c(nc6ccccc46)CCCC5)c3C(C1)C2` (stereo not drawn) [HUPNTH], the 50% inhibitory concentration (IC50) in data set [1] came out at 2370 ± 1400 nM; in the data set with L. infantum amastigotes (setting [3]), 1520 ± 660 nM. Further, the CC50 at 48 h in the data set “in vitro” was determined as 3400 ± 1000 nM.
